Laboratory results taken from patent US20120121540A1 (priority 2007, published 2012).

Assay: HCV replicon assay (luciferase reporter, ET cell line)
Format: cell-based
Details: Hepatitis C virus, HCV replicon luciferase activity in ET cells
Method: A cell line, ET (Huh-lucubineo-ET) is used for screening of compounds for inhibiting HCV RNA dependent RNA polymerase. The ET cell line is stably transfected with RNA transcripts harboring a I389 luc-ubi-neo/NS3-3′/ET; replicon with firefly luciferase-ubiquitin-neomycin phosphotransferase fusion protein and EMCV-IRES driven NS3-5B polyprotein containing the cell culture adaptive mutations (E1202G; T1280I; K1846T) (Krieger at al, 2001 and unpublished). The ET cells are grown in DMEM (Dulbeco's Modified Eagle's Medium), supplemented with 10% fetal calf serum, 2 mM Glutamine, Penicillin (100 IU/mL)/Streptomycin (100 μg/mL), 1× nonessential amino acids, and 250 μg/mL G418 (“Geneticin”). They are all available through Life Technologies (Bethesda, Md.). The cells are plated at 0.5−1.0×10^4 cells/well in the 96 well plates and incubated for 24 hrs before adding test compound. The compounds are added to the cells to achieve a final concentration of 0.1 nM to 50 μm and a final DMSO (dimethylsulfoxide) concentration of 0.5%. Luciferase activity is measured 48-72 hours later by adding a lysis buffer and the substrate (Catalog number Glo-lysis buffer E2661 and Bright-Glo luciferase system E2620 Promega, Madison, Wis.). Cells should not be too confluent during the assay. Percent inhibition of replication data is plotted relative to no compound control. Under the same condition, cytotoxicity of the compounds are determined using cell proliferation reagent, WST-1 (Roche, Germany). The compounds showing antiviral activities, but no significant cytotoxicities are chosen to determine EC50 and TC50. For these determinations, a 10 point, 2-fold serial dilution for each compound was used, which spans a concentration range of 1000 fold. EC50 and similarly TC50 values were calculated by fitting % inhibition at each concentration to the following equation:
% inhibition=100%/[(EC50/[I])^b+1]
where b is Hill's coefficient.
% inhibition values at a specific concentration, […] for example, can also be derived from the equation above.

| SMILES | inhibition at 10 µM [%] |
| --- | --- |
| O=C(NCc1cccs1)c1cc2cc(-c3ccccc3)cc(Br)n2n1 [Compound 111, 7-Bromo-5-phenyl-pyrazolo[1,5-a]pyridine-2-carboxylic Acid (thiophen-2-ylmethyl)-amide] | 64.2 |
| O=C(c1nc2c(C(F)(F)F)cc(-c3c[nH]c4ccccc34)cn2c1Cl)N1CCC(c2cccc(F)c2)C1 (centres unmarked) [Compound 525, [3-Chloro-6-(1H-indol-3-yl)-8-trifluoromethyl-imidazo[1,2-a]pyridin-2-yl]-[3-(3-fluoro-phenyl)-pyrrolidin-1-yl]methanone] | 23.4 |
| O=C(c1nc2c(C(F)(F)F)cc(-c3ccoc3)cn2c1Cl)N1CCC(c2ccccn2)C1 (centres unmarked) [Compound 468, (3-Chloro-6-furan-3-yl-8-trifluoromethyl-imidazo[1,2-a]pyridin-2-yl)-(3-pyridin-2-yl-pyrrolidin-1-yl)-methanone] | 93.9 |
| N#Cc1cc(-c2cn[nH]c2)cn2c(Cl)c(C(=O)NCc3cccs3)nc12 [Compound 379, 3-Chloro-8-cyano-6-(1H-pyrazol-4-yl)-imidazo[1,2-a]pyridine-2-carboxylic Acid (thiophen-2-ylmethyl)-amide] | 80.8 |
| O=C(c1nc2c(C(F)(F)F)cc(C3=CCNCC3)cn2c1Cl)N1CCC(c2cccc(F)c2)C1 (centres unmarked) [Compound 629, [3-chloro-6-(1,2,3,6-tetrahydropyridin-4-yl)-8-(trifluoromethyl)imidazo[1,2-a]pyridin-2-yl][3-(3-fluorophenyl)pyrrolidin-1-yl]methanone] | 73.3 |
| COC(=O)c1cccc(C2CCN(C(=O)c3nc4c(C(F)(F)F)cc(-c5ccoc5)cn4c3Cl)C2)c1 (centres unmarked) [Compound 452, 3-(1-(3-Chloro-6-furan-3-yl-8-trifluoromethyl-imidazo[1,2-a]pyridine-2-carbonyl)-pyrrolidin-3-yl)-benzoic acid methyl ester] | 87.6 |
| O=C(NCc1cccs1)c1nc2c(C(F)(F)F)cc(C3=CCCCO3)cn2c1Cl [Compound 284, 3-Chloro-6-(5,6-dihydro-4H-pyran-2-yl)-8-trifluoromethyl-imidazo[1,2-a]pyridine-2-carboxylic Acid (thiophen-2-ylmethyl)-amide] | 98.8 |
| NC(=O)Cc1c(C(=O)N2CCC(c3ccc(F)cc3)C2)nc2c(C(F)(F)F)cc(-c3ccoc3)cn12 (centres unmarked) [Compound 239, 2-{2-[3-(4-Fluoro-phenyl)-pyrrolidine-1-carbonyl]-6-furan-3-yl-8-trifluoromethyl-imidazo[1,2-a]pyridin-3-yl}-acetamide] | 53 |
| O=C(c1cn2cc(-c3cn[nH]c3)cc(C(F)(F)F)c2n1)N1CCC(c2ccc(F)cc2)C1 (centres unmarked) [Compound 255, [3-(4-Fluoro-phenyl)-pyrrolidin-1-yl]-[6-(1H-pyrazol-4-yl)-8-trifluoromethyl-imidazo[1,2-a]pyridin-2-yl]-methanone] | 76.6 |
| O=C(NCCc1cccs1)c1cc2cc(-c3ccccc3)cc(I)n2n1 [Compound 125, 7-Iodo-5-phenyl-pyrazolo[1,5-a]pyridine-2-carboxylic Acid (2-thiophen-2-yl-ethyl)-amide] | 48 |
| O=C(NCc1cccs1)c1nc2c(C(F)(F)F)cc(-c3ccoc3)cn2c1[N+](=O)[O-] [Compound 232, 6-Furan-3-yl-3-nitro-8-trifluoromethyl-imidazo[1,2-a]pyridine-2-carboxylic Acid (thiophen-2-ylmethyl)-amide] | 56.6 |
| O=C(c1nc2c(C(F)(F)F)cc(-c3cn[nH]c3)cn2c1-c1cn[nH]c1)N1CCC(c2cccc(F)c2)C1 (centres unmarked) [Compound 486, [3,6-Bis-(1H-pyrazol-4-yl)-8-trifluoromethyl-imidazo[1,2-a]pyridin-2-yl]-[3-(3-fluoro-phenyl)-pyrrolidin-1-yl]-methanone] | 65.8 |
| N#Cc1cccc(C2CCN(C(=O)c3nc4c(C(F)(F)F)cc(-c5ccoc5)cn4c3Cl)C2)c1 (centres unmarked) [Compound 450, 3-(1-(3-Chloro-6-furan-3-yl-8-trifluoromethyl-imidazo[1,2-a]pyridine-2-carbonyl)-pyrrolidin-3-yl)-benzonitrile] | 82.5 |
| O=C(NCc1cccs1)c1nc2c(C(F)(F)F)cc(-c3cccs3)cn2c1Cl [Compound 175, 3-Chloro-6-thiophen-2-yl-8-trifluoromethyl-imidazo[1,2-a]pyridine-2-carboxylic acid (thiophen-2-ylmethyl)-amide] | 99.4 |
| O=C(c1nc2c(C(F)(F)F)cc(-c3cn[nH]c3)cn2c1Br)N1CCC(c2ccccc2F)C1 (centres unmarked) [Compound 449, (3-Bromo-6-(1H-pyrazol-4-yl)-8-trifluoromethyl-imidazo[1,2-a]pyridin-2-yl)-(3-(2-fluoro-phenyl)-pyrrolidin-1-yl)-methanone] | 97.4 |
| CN(C)S(=O)(=O)NC1CN(C(=O)c2nc3c(C(F)(F)F)cc(-c4ccoc4)cn3c2Cl)C1 [Compound 504] | 98.9 |
| O=C(c1nc2c(C(F)(F)F)cc(-c3ccoc3)cn2c1Cl)N1CC(NS(=O)(=O)c2ccccc2F)C1 [Compound 494, N-[1-(3-Chloro-6-furan-3-yl-8-trifluoromethyl-imidazo[1,2-a]pyridine-2-carbonyl)-azetidin-3-yl]-2-fluoro-benzenesulfonamide] | 88.5 |
| O=C(NCc1ccc(OC(F)(F)F)cc1)c1nc2c(C(F)(F)F)cc(-c3ccco3)cn2c1Cl [Compound 204, 3-Chloro-6-furan-2-yl-8-trifluoromethyl-imidazo[1,2-a]pyridine-2-carboxylic acid 4-trifluoromethoxy-benzylamide] | 31.7 |
| O=C(NCc1ccc(-c2ccccn2)s1)c1nc2c(C(F)(F)F)cc(-c3ccco3)cn2c1Cl [Compound 219, 3-Chloro-6-furan-2-yl-8-trifluoromethyl-imidazo[1,2-a]pyridine-2-carboxylic Acid (5-pyridin-2-yl-thiophen-2-ylmethyl)-amide] | 25.4 |
| O=C(c1cn2cc(-c3ccoc3)cc(C(F)(F)F)c2n1)N1CCC(c2ccc(F)cc2)C1 (centres unmarked) [Compound 251, [3-(4-Fluoro-phenyl)-pyrrolidin-1-yl]-(6-furan-3-yl-8-trifluoromethyl-imidazo[1,2-a]pyridin-2-yl)-methanone] | 93.4 |
| O=C(c1nc2c(C(F)(F)F)cc(-c3cccc(F)c3)cn2c1Cl)N1CCC(c2ccc(F)cc2)C1 (centres unmarked) [Compound 234, [3-Chloro-6-(3-fluoro-phenyl)-8-trifluoromethyl-imidazo[1,2-a]pyridin-2-yl]-[3-(4-fluoro-phenyl)-pyrrolidin-1-yl]-methanone] | 81.8 |
| O=C(c1nc2c(C(F)(F)F)cc(-c3ccoc3)cn2c1Cl)N1CCC(Oc2ccccc2)C1 (centres unmarked) [Compound 593, (3-Chloro-6-furan-3-yl-8-trifluoromethyl-imidazo[1,2-a]pyridin-2-yl)-(3-phenoxy-pyrrolidin-1-yl)-methanone] | 89.5 |
| O=C(c1nc2c(C(F)(F)F)cc(-c3ccoc3)cn2c1Cl)N1CC=C(c2cccs2)C1 [Compound 422, (3-Chloro-6-furan-3-yl-8-trifluoromethyl-imidazo[1,2-a]pyridin-2-yl)-(3-thiophen-2-yl-2,5-dihydro-pyrrol-1-yl)-methanone] | 99.8 |
| O=C(NCCc1ccccc1)c1cc2cc(-c3ccccc3)cc(I)n2n1 [Compound 130, 7-Iodo-5-phenyl-pyrazolo[1,5-a]pyridine-2-carboxylic Acid phenethyl-amide] | 32.3 |
| C=C(C)c1cc(-c2ccccc2)cn2c(Cl)c(C(=O)NCc3cccs3)nc12 [Compound 358, 3-Chloro-8-isopropenyl-6-phenyl-imidazo [1,2-a]pyridine-2-carboxylic Acid (thiophen-2-ylmethyl)-amide] | 77.3 |
| O=C(c1nc2c(C(F)(F)F)cc(-c3cn[nH]c3)cn2c1Cl)N1CC=C(c2nccs2)C1 [Compound 439, [3-Chloro-6-(1H-pyrazol-4-yl)-8-trifluoromethyl-imidazo[1,2-a]pyridin-2-yl]-(3-thiazol-2-yl-2,5-dihydro-pyrrol-1-yl)-methanone] | 99.2 |
| COC(=O)[C@@H]1CN(C(=O)c2nc3c(C(F)(F)F)cc(-c4ccoc4)cn3c2Cl)C[C@H]1c1ccccc1 (stereo in doubt) [Compound 221, 1-(3-Chloro-6-furan-3-yl-8-trifluoromethyl-imidazo[1,2-a]pyridine-2-carbonyl)-4-phenyl-pyrrolidine-3-carboxylic Acid Methyl Ester] | 73.6 |
| O=C(NCc1cccs1)c1cn2cc(-c3ccccc3)cc(C(F)(F)F)c2n1 [Compound 137, 6-Phenyl-8-trifluoromethyl-imidazo[1,2-a]pyridine-2-carboxylic Acid (thiophen-2-ylmethyl)-amide] | 63 |
| CCN(CC)C(=O)/C=C/c1cc(-c2ccccc2)cn2c(Cl)c(C(=O)NCc3cccs3)nc12 [Compound 268, 3-Chloro-8-((E/Z)-2-diethylcarbamoyl-vinyl)-6-phenyl-imidazo[1,2-a]pyridine-2-carboxylic Acid (thiophen-2-ylmethyl)-amide] | 40.2 |
